# Test results published in patent US6809106B1, “Quinoline derivatives as inhibitors of MEK enzymes” (AstraZeneca AB, priority 1999, dated 2004).
# Tests used:
# [1] = tested on: HT29 human colon tumour cells; assay: Cell proliferation assays; type: cell-based; settings: 72 hours incubation
# Experimental: Cell Proliferation Assays
# Cells were seeded into multi-well plates at 20 000-40 000 cells/ml in growth medium containing 5% FCS and incubated overnight at 37° C. The compounds were prepared in fresh medium at an appropriate concentration and added to the wells containing the cells. These were then incubated for a further 72 hours. Cells were then either removed from the wells by incubating with trypsin/EDTA and counted using a Coulter counter, or treated with KIT/PMS in PBSA and optical densities read at […].
# human p45MEK1 (GST-MEK) = human p45MEK1 (GST-MEK) (Homo sapiens, UniProt Q02750); assay: Assay for inhibitors of the MAP kinase pathway (coupled GST-MEK/GST-MAPK/MBP 33P assay); type: biochemical; settings: GST-MEK activated by c-raf, MBP substrate, 8.33 μM ATP
# Experimental: Assay for Inhibitors of the MAP Kinase Pathway
# To evaluate inhibitors of the MAPK pathway a coupled assay was carried out which measures phosphorylation of serine/threonine residues present in the substrate in the presence or absence of inhibitor. Recombinant glutathione S-transferase fusion protein containing human p45MEK1 (GST-MEK) was activated by c-raf (Sf9 insect cell lysate from triple baculoviral infection with c-raf/ras/lck) and used for the assay. Active GST-MEK was first used to activate a recombinant glutathione S-transferase fusion protein containing p44MAP kinase (GST-MAPK) in the presence of ATP and Mg^2+ for 60min at room temperature in the presence or absence of potential inhibitors. The activated GST-MAPK was then incubated with myelin basic protein (MBP) as substrate for 10 min at room temperature in the presence of ATP, Mg^2+ and ^33P-ATP. The reaction was stopped by addition of 20% v/v phosphoric acid. Incorporation of ^33P into the myelin basic protein was determined by capture of the substrate on a filter mat, washing and counting using scintillation methods. The extent of inhibition was determined by comparison with untreated controls.
# The final assay solution contained 10 mM Tris, pH 7.5, 0.05 mM EGTA, 8.33 μM [γ^33P]ATP, 8.33 mM Mg(OAc)2, 0.5 mM sodium orthovanadate, 0.05% w/v BSA, 6.5 ng GST-MEK, 1 μg GST-MAPK and 16.5 μg MBP in a reaction volume of […].
# human p45MEK1 (GST-MEK), sequence (Q02750 whole entry): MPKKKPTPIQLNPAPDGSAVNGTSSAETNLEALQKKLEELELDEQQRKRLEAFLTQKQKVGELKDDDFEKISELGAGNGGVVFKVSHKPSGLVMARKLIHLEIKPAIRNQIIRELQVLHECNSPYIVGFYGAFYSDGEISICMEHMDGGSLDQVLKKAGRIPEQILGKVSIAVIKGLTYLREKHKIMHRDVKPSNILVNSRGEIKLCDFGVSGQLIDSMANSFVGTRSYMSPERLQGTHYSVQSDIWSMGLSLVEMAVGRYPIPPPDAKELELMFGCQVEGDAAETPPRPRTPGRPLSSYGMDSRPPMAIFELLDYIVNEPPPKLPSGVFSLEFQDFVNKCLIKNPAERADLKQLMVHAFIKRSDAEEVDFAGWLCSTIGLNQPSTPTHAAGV
Compound,IC50 [1] [nM],IC50 (human p45MEK1 (GST-MEK)) [nM]
"COc1cc2ncc(Cl)c(Nc3ccc(Oc4ccccc4OC)cc3)c2cc1OC [Compound 1, 4-(2-methoxyphenoxy)-anilino-3-chloro-6,7-dimethoxyquinoline]",3400,–
COc1cc2ncc(Cl)c(Nc3ccc(Cl)c(Cl)c3)c2cc1OC [Compound 5],–,1530
